Data published in patent US20040142821A1, “Pesticide composition comprising malononitrile compounds” (priority 2001, published 2004).

These compounds were tested on Cullex pipiens pallens (assay: whole plant or invertebrate). Conditions: 24 h.
Protocol: In 100 ml of ion-exchanged water, the test liquid had been prepared as described above, was added dropwise in an amount of 0.7 ml (the concentration of active ingredient was 3.5 ppm). Twenty final-instar larvae of Cullex pipiens pallens (common mosquito) were set free in the solution. After 1 days, their survival was examined to determine the mortality.

Row | Structure (SMILES) | mortality at 3.5 µg/mL
1 | C=CCCC(C#N)(C#N)Cc1ccc(OC(F)(F)F)cc1 [Compound 15, 2-(3-butenyl)-2-(4-(trifluoromethoxy)benzyl)malononitrile] | 100%
2 | C=CCC(C#N)(C#N)Cc1cccc(Cl)c1 [Compound 17, 2-allyl-2-(3-chlorobenzyl)malononitrile] | 100%
3 | CC(C)CC(C#N)(C#N)Cc1ccc(Cl)cc1 [Compound 19, 2-(4-chlorobenzyl)-2-isobutylmalononitrile] | 100%
4 | C=CCCCC(C#N)(C#N)Cc1ccc(Cl)cc1 [Compound 21, 2-(4-chlorobenzyl)-2-(4-pentenyl)malononitrile] | 100%
5 | C=CC(C)C(C#N)(C#N)Cc1ccc(Cl)cc1 (stereo not drawn) [Compound 22, 2-(4-chlorobenzyl)-2-(1-methyl-2-propenyl)malononitrile] | 100%
6 | C=CCC(C#N)(C#N)Cc1ccc(Cl)cc1Cl [Compound 24, 2-allyl-2-(2,4-dichlorobenzyl)malononitrile] | 100%
7 | C=CCCC(C#N)(C#N)C(c1ccc(Cl)cc1)C(C)C (stereo not drawn) [Compound 26, 2-(3-butenyl)-2-(1-(4-chlorophenyl)-2-methylpropyl)malononitrile] | 100%
8 | C=CCC(C#N)(C#N)C(C)c1ccc(OC(F)(F)F)cc1 (stereo not drawn) [Compound 30, 2-allyl-2-(1-(4-(trifluoromethoxy)phenyl)ethyl)malononitrile] | 100%
9 | C=CCC(C#N)(C#N)C(CCl)c1ccc(OC(F)(F)F)cc1 (stereo not drawn) [Compound 31, 2-allyl-2-(1-(4-(trifluoromethoxy)phenyl)-2-chloroethyl)malononitrile] | 100%
10 | C=CCCC(C#N)(C#N)C(C=C)c1ccc(OC(F)(F)F)cc1 (stereo not drawn) [Compound 32, 2-(3-butenyl)-2-(1-(4-(trifluoromethoxy)phenyl)-2-propenyl)malononitrile] | 100%
11 | C=CCC(C#N)(C#N)C(C=C)c1ccc(OC(F)(F)F)cc1 (stereo not drawn) [Compound 33, 2-allyl-2-(1-(4-(trifluoromethoxy)phenyl)-2-propenyl)malononitrile] | 100%
12 | C=CCCC(C#N)(C#N)Cc1ccc(OC(F)F)cc1 [Compound 36, 2-(3-butenyl)-2-(4-(difluoromethoxy)benzyl)malononitrile] | 100%
13 | C=CCC(C#N)(C#N)C(OC)c1ccc(OC(F)(F)F)cc1 (stereo not drawn) [Compound 39, 2-allyl-2-(4-(trifluoromethoxy)-α-methoxybenzyl)malononitrile] | 100%
14 | C=CCC(C#N)(C#N)Cc1ccc(SC(F)(F)F)cc1 [Compound 41, 2-allyl-2-(4-(trifluoromethylthio)benzyl)malononitrile] | 100%
15 | C=CCCC(C#N)(C#N)Cc1ccc(SC(F)(F)F)cc1 [Compound 42, 2-(3-butenyl)-2-(4-(trifluoromethylthio)benzyl)malononitrile] | 100%
16 | C=CCC(C#N)(C#N)C(OC)c1ccc(SC(F)(F)F)cc1 (stereo not drawn) [Compound 43, 2-allyl-2-(4-(trifluoromethylthio)-α-methoxybenzyl)malononitrile] | 100%
17 | CC=CCC(C#N)(C#N)Cc1ccc(SC(F)(F)F)cc1 [Compound 46, 2-(2-butenyl)-2-(4-(trifluoromethylthio)benzyl)malononitrile] | 100%
18 | C=CC(C)C(C#N)(C#N)Cc1ccc(SC(F)(F)F)cc1 (stereo not drawn) [Compound 47, 2-(1-methyl-2-propenyl)-2-(4-(trifluoromethylthio)benzyl)malononitrile] | 100%

These compounds were tested on Diabrotica undecimpunctata (assay: Pesticidal test against Diabrotica undecimpunctata, treated filter paper (Test Example 4)). Conditions: 50 ppm test liquid (Formulation Example 1), 1 ml on filter paper; 30 to 50 eggs and one germinated corn seed; 25° C.
Assay type: in vivo, Diabrotica undecimpunctata (southern-corn rootworm)
Protocol: One germinated seed of corn and 30 to 50 eggs of Diabrotica undecimpunctata (southern-corn rootworm) was placed on the filter paper in the polyethylene cup, which was then kept covered and left in a room at 25° C. On the 6th day after, the number of surviving larvae of Diabrotica undecimpunctata was examined.

Row | Structure (SMILES) | number of surviving pests on the 6th day after
19 | CC(C)CC(C#N)(C#N)Cc1ccc(Cl)cc1 [Compound 19, 2-(4-chlorobenzyl)-2-isobutylmalononitrile] | 0
20 | C=CCCCC(C#N)(C#N)Cc1ccc(Cl)cc1 [Compound 21, 2-(4-chlorobenzyl)-2-(4-pentenyl)malononitrile] | 0
21 | C=CC(C)C(C#N)(C#N)Cc1ccc(Cl)cc1 (stereo not drawn) [Compound 22, 2-(4-chlorobenzyl)-2-(1-methyl-2-propenyl)malononitrile] | 0
22 | C=CCC(C#N)(C#N)Cc1ccc(Cl)cc1Cl [Compound 24, 2-allyl-2-(2,4-dichlorobenzyl)malononitrile] | 0
23 | C=CCCC(C#N)(C#N)C(c1ccc(Cl)cc1)C(C)C (stereo not drawn) [Compound 26, 2-(3-butenyl)-2-(1-(4-chlorophenyl)-2-methylpropyl)malononitrile] | 0

The compounds below were run on German cockroach (assay: Pesticidal test against German cockroach, treated filter paper with sucrose bait (Test Example 6)). Conditions: Blattella germanica, 144 h; 500 ppm test liquid (Formulation Example 5), 0.7 ml on filter paper; two male adults; after 6 days.
Assay type: in vivo
From the text: Two male adults of German cockroach (Blattalla germanica) were set free in the polyethylene cup, which was then kept covered. After 6 days, their survival was examined to determine the mortality.

Row | Structure (SMILES) | mortality at 500 ppm
24 | C=CCCC(C#N)(C#N)Cc1ccc(OC(F)(F)F)cc1 [Compound 15, 2-(3-butenyl)-2-(4-(trifluoromethoxy)benzyl)malononitrile] | 100%
25 | C=CCC(C#N)(C#N)Cc1cccc(Cl)c1 [Compound 17, 2-allyl-2-(3-chlorobenzyl)malononitrile] | 100%
26 | C=CCC(C#N)(C#N)C(C)c1ccc(OC(F)(F)F)cc1 (stereo not drawn) [Compound 30, 2-allyl-2-(1-(4-(trifluoromethoxy)phenyl)ethyl)malononitrile] | 100%
27 | C=CCC(C#N)(C#N)C(CCl)c1ccc(OC(F)(F)F)cc1 (stereo not drawn) [Compound 31, 2-allyl-2-(1-(4-(trifluoromethoxy)phenyl)-2-chloroethyl)malononitrile] | 100%
28 | C=CCCC(C#N)(C#N)C(C=C)c1ccc(OC(F)(F)F)cc1 (stereo not drawn) [Compound 32, 2-(3-butenyl)-2-(1-(4-(trifluoromethoxy)phenyl)-2-propenyl)malononitrile] | 100%
29 | C=CCC(C#N)(C#N)C(C=C)c1ccc(OC(F)(F)F)cc1 (stereo not drawn) [Compound 33, 2-allyl-2-(1-(4-(trifluoromethoxy)phenyl)-2-propenyl)malononitrile] | 100%
30 | C=CCCC(C#N)(C#N)Cc1ccc(OC(F)F)cc1 [Compound 36, 2-(3-butenyl)-2-(4-(difluoromethoxy)benzyl)malononitrile] | 100%
31 | C=CCC(C#N)(C#N)C(OC)c1ccc(OC(F)(F)F)cc1 (stereo not drawn) [Compound 39, 2-allyl-2-(4-(trifluoromethoxy)-α-methoxybenzyl)malononitrile] | 100%
32 | C=CCC(C#N)(C#N)Cc1ccc(SC(F)(F)F)cc1 [Compound 41, 2-allyl-2-(4-(trifluoromethylthio)benzyl)malononitrile] | 100%
33 | C=CCCC(C#N)(C#N)Cc1ccc(SC(F)(F)F)cc1 [Compound 42, 2-(3-butenyl)-2-(4-(trifluoromethylthio)benzyl)malononitrile] | 100%
34 | C=CCC(C#N)(C#N)C(OC)c1ccc(SC(F)(F)F)cc1 (stereo not drawn) [Compound 43, 2-allyl-2-(4-(trifluoromethylthio)-α-methoxybenzyl)malononitrile] | 100%
35 | CC=CCC(C#N)(C#N)Cc1ccc(SC(F)(F)F)cc1 [Compound 46, 2-(2-butenyl)-2-(4-(trifluoromethylthio)benzyl)malononitrile] | 100%
36 | C=CC(C)C(C#N)(C#N)Cc1ccc(SC(F)(F)F)cc1 (stereo not drawn) [Compound 47, 2-(1-methyl-2-propenyl)-2-(4-(trifluoromethylthio)benzyl)malononitrile] | 100%

These compounds were tested on Musca domestics (assay: Pesticidal test against Musca domestics, treated filter paper with sucrose bait (Test Example 5)). Conditions: 500 ppm test liquid (Formulation Example 5), 0.7 ml on filter paper, ten female adults, after 24 hours.
Assay type: in vivo
Protocol: Ten female adults of Musca domestics (house fly) were set free in the polyethylene cup, which was then kept covered. After 24 hours, their survival was examined to determine the mortality.

Row | Structure (SMILES) | mortality at 500 ppm
37 | C=CCCC(C#N)(C#N)Cc1ccc(OC(F)(F)F)cc1 [Compound 15, 2-(3-butenyl)-2-(4-(trifluoromethoxy)benzyl)malononitrile] | 100%
38 | C=CCC(C#N)(C#N)Cc1cccc(Cl)c1 [Compound 17, 2-allyl-2-(3-chlorobenzyl)malononitrile] | 100%
39 | C=CC(C)C(C#N)(C#N)Cc1ccc(Cl)cc1 (stereo not drawn) [Compound 22, 2-(4-chlorobenzyl)-2-(1-methyl-2-propenyl)malononitrile] | 100%
40 | C=CCC(C#N)(C#N)Cc1ccc(Cl)cc1Cl [Compound 24, 2-allyl-2-(2,4-dichlorobenzyl)malononitrile] | 100%
41 | C=CCC(C#N)(C#N)C(C)c1ccc(OC(F)(F)F)cc1 (stereo not drawn) [Compound 30, 2-allyl-2-(1-(4-(trifluoromethoxy)phenyl)ethyl)malononitrile] | 100%
42 | C=CCC(C#N)(C#N)C(CCl)c1ccc(OC(F)(F)F)cc1 (stereo not drawn) [Compound 31, 2-allyl-2-(1-(4-(trifluoromethoxy)phenyl)-2-chloroethyl)malononitrile] | 100%
43 | C=CCCC(C#N)(C#N)C(C=C)c1ccc(OC(F)(F)F)cc1 (stereo not drawn) [Compound 32, 2-(3-butenyl)-2-(1-(4-(trifluoromethoxy)phenyl)-2-propenyl)malononitrile] | 100%
44 | C=CCC(C#N)(C#N)C(C=C)c1ccc(OC(F)(F)F)cc1 (stereo not drawn) [Compound 33, 2-allyl-2-(1-(4-(trifluoromethoxy)phenyl)-2-propenyl)malononitrile] | 100%
45 | C=CCCC(C#N)(C#N)Cc1ccc(OC(F)F)cc1 [Compound 36, 2-(3-butenyl)-2-(4-(difluoromethoxy)benzyl)malononitrile] | 100%
46 | C=CCC(C#N)(C#N)C(OC)c1ccc(OC(F)(F)F)cc1 (stereo not drawn) [Compound 39, 2-allyl-2-(4-(trifluoromethoxy)-α-methoxybenzyl)malononitrile] | 100%
47 | C=CCC(C#N)(C#N)Cc1ccc(SC(F)(F)F)cc1 [Compound 41, 2-allyl-2-(4-(trifluoromethylthio)benzyl)malononitrile] | 100%
48 | C=CCCC(C#N)(C#N)Cc1ccc(SC(F)(F)F)cc1 [Compound 42, 2-(3-butenyl)-2-(4-(trifluoromethylthio)benzyl)malononitrile] | 100%
49 | C=CCC(C#N)(C#N)C(OC)c1ccc(SC(F)(F)F)cc1 (stereo not drawn) [Compound 43, 2-allyl-2-(4-(trifluoromethylthio)-α-methoxybenzyl)malononitrile] | 100%
50 | CC=CCC(C#N)(C#N)Cc1ccc(SC(F)(F)F)cc1 [Compound 46, 2-(2-butenyl)-2-(4-(trifluoromethylthio)benzyl)malononitrile] | 100%
51 | C=CC(C)C(C#N)(C#N)Cc1ccc(SC(F)(F)F)cc1 (stereo not drawn) [Compound 47, 2-(1-methyl-2-propenyl)-2-(4-(trifluoromethylthio)benzyl)malononitrile] | 100%
